Experiments:
DRD2 W100^EL1A = DRD2 W100^EL1A (Homo sapiens, UniProt P14416, W100A); conditions: DRD2 W100^EL1A vs wild-type
DRD2 F110^3.28A = DRD2 F110^3.28A (Homo sapiens, UniProt P14416, F110A); conditions: DRD2 F110^3.28A vs wild-type
[1] = target: T1, DRD2-T4L(Sf9) I122^3.40A/L375^6.37A/L379^6.41A (Homo sapiens, UniProt P14416, I122A/L375A/L379A); experiment: biochemical
T1 sequence (P14416 with tags, fused parts or gaps I122A/L375A/L379A): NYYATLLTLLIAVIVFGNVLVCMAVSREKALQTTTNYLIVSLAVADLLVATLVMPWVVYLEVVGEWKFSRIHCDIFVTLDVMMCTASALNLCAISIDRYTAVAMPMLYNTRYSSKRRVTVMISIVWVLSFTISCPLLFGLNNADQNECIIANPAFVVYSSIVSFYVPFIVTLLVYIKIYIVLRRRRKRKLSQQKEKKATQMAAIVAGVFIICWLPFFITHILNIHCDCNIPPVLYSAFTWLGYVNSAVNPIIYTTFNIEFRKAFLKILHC

DRD2 wild-type = DRD2 wild-type (Homo sapiens, UniProt P14416); experiment: biochemical

Row | Compound | ΔpKd (mutant-WT) (DRD2 W100^EL1A) | ΔpKd (mutant-WT) (DRD2 F110^3.28A) | Ki ([1]; Ki) | Ki ([1]; pKi) | Ki (DRD2 wild-type; Ki) | Ki (DRD2 wild-type; pKi)
1 | CNc1cc(OC)c(C(=O)NC2CCN(Cc3ccccc3)C2C)cc1Cl (stereo not drawn) [Nemonapride, nemonapride] | −0.98 | 0.08 |  |  |  | 
2 | O=c1[nH]c2cccc(N3CCN(Cc4cccc(-c5ccccc5)c4)CC3)c2o1 [Bifeprunox] |  |  | 0.57 nM | 0.562 nM | 1.04 nM | 0.302 nM

Source: article PMC5843546 (Nature, 2018)
